System: site-specific phosphorylation changes in liver samples
Assay: Phospho-proteomics of liver from treated Zucker fatty rats
Type: in vivo
Conditions: BT2 vs vehicle ZFR
Description: Phosphoproteomics: Large-scale measurements of phosphorylation changes in response to BT2 and PPM1K were performed. Briefly, protein from livers of ZFR treated with BT2 or DMSO, or with Ad-CMV-PPM1K or Ad-CMV-GFP, were solubilized, digested with LysC and trypsin, labeled with TMT-6plex reagents, and mixed in batches of six to enable two direct comparisons: 1) BT2 vs. DMSO (n=3), 2) PPM1K vs. GFP (n=3). Phosphopeptides were enriched from the majority of each mixture using immobilized metal affinity chromatography (IMAC), and a small portion of the input material was retained for assessment of relative protein abundance. Both phosphopeptide and input fractions were subjected to nanoLC-MS/MS using a nano-Acquity UPLC system (Waters) coupled to a Q Exactive Plus Hybrid Quadrupole-Orbitrap mass spectrometer (Thermo Fischer Scientific). Raw LC-MS/MS data were processed in Proteome Discoverer v2.1 (PD2.1, Thermo Fisher Scientific) and subsequent statistical analysis was performed in Microsoft EXCEL. […] (PD2.2, Thermo Fisher Scientific). Phosphosite motif analysis and logo generation was performed in PhosphoSitePlus® by submitting pre-aligned 15 amino acid sequences for all modulated phosphopeptides from each study into the motif and logo analysis tools (Hornbeck et al., 2015).
Tissue lysis and protein digestion for proteomics: Approximately 50 mg of pulverized liver tissue power from each rat (3 BT2- and 3 DMSO-treated animals; 3 PPM1K- and 3 GFP-overexpressing animals) was re-suspended in 400 μL of ice-cold 8M Urea Lysis Buffer (8 M urea in 50 mM Tris, pH 8.0, 40 mM NaCl, 2 mM MgCl2, 1 mM Na3VO4, 10 mM Na4P2O7, 50 mM NaF, supplemented with protease inhibitor (1× cOmplete mini EDTA-free) and phosphatase inhibitor (1× PhosStop) tablets). […] Protein concentration was determined by BCA, and equal amounts of protein (500 μg, adjusted to 2.5 mg/mL with Urea Lysis Buffer) from each sample was reduced with 5 mM DTT at 37° C. for 30 min, cooled to RT, alkylated with 15 mM iodoacetamide for 30 min in the dark and unreacted iodoacetamide quenched by the addition of DTT up to 15 mM. […]

O=C(O)c1sc2cc(Cl)ccc2c1Cl [BT2, 3,6-dichlorobenzo[b]thiophene-2-carboxylic acid]
phosphorylation of serine 25, serine 29 and serine79 of acetyl-coA carboxylase 1 (ACC1), phospho-proteomics: less phosphorylated | phosphosite serine 454 of ATP-citrate lyase (ACL), phospho-proteomics: significantly downregulated | Log2 fold change in phosphorylation of serine 293 (serine 333) of BCKDH e1a, phospho-proteomics (p=0.054): −0.68

Reference: US20210267939A1, “COMPOSITIONS AND METHODS FOR TREATING NAFLD/NASH AND RELATED DISEASE PHENOTYPES” (priority 2018, published 2021)
